Reference: patent publication US20120015981A1, “Active compound combinations” (Bayer CorpScience AG, priority 2009, published 2012)

Tested on: Microdochium nivale
Experiment: Microdochium nivale test (lawn)/protective
Type: in vivo
Conditions: lawn (100% Agrostis stolonifera) in dishes; preventive application at 2000, 1000, 500 and 100 g/ha, 24 hours before inoculation with infected wheat grains; scoring after 5, 7, 14 and 21 days
Method: Microdochium nivale Test (Lawn)/Protective
Lawn seed (100% Agrostis stolonifera) was sown in dishes of the dimensions 38 cm×15 cm×9 cm. 7 days after sowing, the lawn was cut prior to preventive guanidinium hydroxide application at application rates of 2000, 1000, 500 and 100 g/ha. The water application rates were […] (converted). 24 hours after the preventive application of the active compound, the lawn was inoculated by placing of wheat grains infected with Microdochium nivale. In each case 3 wheat grains were placed into a single dish. Scoring of the subsequent fungal growth in the lawn dishes was carried out after 5, 7, 14 and 21 days. In the dishes which had been treated with guanidinium hydroxide, an inhibition of the growth of Microdochium nivale of up to 30% (Abbott) was observed.

N=C(N)N.O [guanidinium hydroxide]
inhibition of the growth of Microdochium nivale: up to 30 % (Abbott)
